For the assay, the target named is T1, YAP (Yes 1–associated protein), purified (Homo sapiens, UniProt P46937).
T1 construct: gene YAP1; purified YAP protein
Kind of assay: microscale thermophoresis. Format: binding. Particulars: read-out: dissociation constant.

The structures appear in SMILES notation.

T1 sequence (P46937 whole entry): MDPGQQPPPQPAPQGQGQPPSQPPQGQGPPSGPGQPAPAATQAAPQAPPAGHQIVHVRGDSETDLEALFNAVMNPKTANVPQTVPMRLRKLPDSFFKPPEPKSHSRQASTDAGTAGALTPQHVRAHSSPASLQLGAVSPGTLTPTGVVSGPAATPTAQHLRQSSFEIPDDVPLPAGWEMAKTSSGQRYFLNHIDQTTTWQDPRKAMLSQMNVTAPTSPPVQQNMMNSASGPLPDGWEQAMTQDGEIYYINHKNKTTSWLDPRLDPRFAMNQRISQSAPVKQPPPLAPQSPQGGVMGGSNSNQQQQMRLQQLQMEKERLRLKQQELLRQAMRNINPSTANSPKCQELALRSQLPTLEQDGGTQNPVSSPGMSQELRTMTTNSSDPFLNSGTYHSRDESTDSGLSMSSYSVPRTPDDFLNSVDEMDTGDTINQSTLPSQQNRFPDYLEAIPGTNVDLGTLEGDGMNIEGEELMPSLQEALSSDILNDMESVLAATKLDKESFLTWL

As for `CCCCCCCCCCCCC/C=C/[C@@H](O)[C@@H](N)COP(=O)(O)O` [sphingosine 1-phosphate], the Kd was found to be 13 µM.

Source of the values: PMC11870743, “Endothelial OX40 activation facilitates tumor cell escape from T cell surveillance through S1P/YAP-mediated angiogenesis” (The Journal of Clinical Investigation, 2025).
